Holding throughout (assay): Bliss excess, mean over the matrix (fraction); higher = more synergy
Assay [1] concerns L-363 (Plasma Cell Myeloma). The procedure, abridged: (§1)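 After 24 hours at 37°C and 5% CO2 in 1536-well plates, cells in DMEM/F12 or RPMI plus 10% FBS received two-drug dose matrices for 72 hours. Viability came from CellTiter-Glo 2.0 luminescence and was scaled as inhibition, anchored at 0 by vehicle wells and at 1 by blank wells. Combination Emax is taken as the second-highest inhibition in the matrix, and Bliss excess as the observed combination effect less EA + EB − EA·EB, with EA and EB the single-agent effects.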

For another assay, the system named is NCI-H2452 (Mesothelioma). The method in brief: as §1
Assay [2] relates to SBC-3 (Small Cell Lung Carcinoma). The procedure, abridged:
as §1

Assay [3] has as its system BC-1 (B-Cell Non-Hodgkin's Lymphoma). The method in brief:
as §1

Assay [4] concerns COR-L105 (Lung Adenocarcinoma). The procedure, abridged:
as §1

Assay [5] deals with RPMI-8402 (T-Lymphoblastic Leukemia). The method in brief:
as §1

Assay [6] relates to NCI-H1648 (Lung Adenocarcinoma). The procedure, abridged:
as §1

Assay [7] relates to NCI-H2009 (Lung Adenocarcinoma). The method in brief: as §1
Assay [8] relates to MRK-nu-1 (Breast Carcinoma). The method in brief:
as §1

Assay [9] concerns NCI-H1944 (Lung Adenocarcinoma). The method in brief: as §1
The subject of assay [10] is SBC-5 (Small Cell Lung Carcinoma). The procedure, abridged:
as §1

The subject of assay [11] is JJN-3 (Plasma Cell Myeloma). The procedure, abridged: as §1
The subject of assay [12] is HT-3 (Cervical Carcinoma). The procedure, abridged: as §1
Assay [13] has as its system Daudi (Burkitt's Lymphoma). The procedure, abridged:
as §1

In assay [14] the test system is ATN-1 (T-Lymphoblastic Leukemia). The method in brief: as §1
Assay [15] concerns SUP-HD1 (Hodgkin's Lymphoma). The method in brief: as §1
Assay [16] has as its system NCI-H1975 (Lung Adenocarcinoma). The procedure, abridged:
as §1

Regarding `C[C@@H]1COCCN1c1cc(C2([S@](C)(=N)=O)CC2)nc(-c2ccnc3[nH]ccc23)n1` [AZD6738] + C1CC(C1)(C(=O)[O-])C(=O)[O-].N.N.[Pt+2] [Carboplatin] (first compound max 10 µM, 7x7, partner max 10 µM), the Bliss excess in assay [1] was -0.0089; in the assay with NCI-H2452 (Mesothelioma) it was -0.0212; in [2] it was -0.031; in assay [3] it was -0.0173; in assay [4], -0.0272; in [5], -0.0461. Moreover, the Bliss excess in assay [6] is -0.0579; in assay [7], -0.0556; in assay [8], -0.0127.
Regarding `O=C(c1cc(Cc2n[nH]c(=O)c3ccccc23)ccc1F)N1CCN(C(=O)C2CC2)CC1` [Olaparib] + CN(CC[C@H](CSC1=CC=CC=C1)NC2=C(C=C(C=C2)S(=O)(=O)NC(=O)C3=CC=C(C=C3)N4CCC(CC4)[C@H](C5=CC=CC=C5C6=CC=C(C=C6)Cl)O)S(=O)(=O)C(F)(F)F)CCO [AZD4320] (first compound max 10 µM, 7x7, partner max 1 µM), the Bliss excess is 0.0718 in assay [1]; -0.0697 with NCI-H2452 (Mesothelioma); 0.0197 in assay [2]; 0.061 in assay [3]; -0.049 in [4]; 0.0077 in assay [5]. In addition, the Bliss excess in [6] is -0.0497; in assay [7], -0.0603; in assay [8], 0.0031.
On to `CS(=O)(=O)CCNCc1ccc(-c2ccc3ncnc(Nc4ccc(OCc5cccc(F)c5)c(Cl)c4)c3c2)o1` [Lapatinib] + NC1(c2ccc(-c3nc4ccn5c(=O)[nH]nc5c4cc3-c3ccccc3)cc2)CCC1 [MK-2206] (first compound max 10 µM, 7x7, partner max 10 µM), for which the Bliss excess is 0.026 in assay [1]; -0.0302 with NCI-H2452 (Mesothelioma); 0.0258 in assay [2]; 0.0584 in assay [3]; 0.014 in assay [4]; 0.0376 in assay [9]. The Bliss excess in assay [5] is 0.0064; in assay [10], -0.0051; in assay [6] it was 0.0349; in assay [7] it was -0.0246; in assay [11] it was 0.0508; in [8] it was 0.0505.
In the case of `Cc1c2c(nn1C)CSCc1cc(n(C)n1)CSc1cc(c3ccccc3c1)OCCCc1c(C(=O)O)n(C)c3c-2c(Cl)ccc13` [AZD5991] + CC(=O)O[C@H]1C(=O)[C@@]2(C)[C@H]([C@H](OC(=O)c3ccccc3)[C@]3(O)C[C@H](OC(=O)[C@H](O)[C@@H](NC(=O)c4ccccc4)c4ccccc4)C(C)=C1C3(C)C)[C@]1(OC(C)=O)CO[C@@H]1C[C@@H]2O [Paclitaxel] (first compound max 1 µM, 7x7, partner max 3 µM), the Bliss excess in [1] was -0.0043; in the assay on NCI-H2452 (Mesothelioma), 0.0378; in assay [2] it was -0.0404; in [3], -0.0329; in assay [4], -0.0367; in [5], 0.0139. For the same compound, the Bliss excess in assay [6] was -0.0144; in [7] it was 0.0027; in [8], 0.0286.
For `C[C@@H](Nc1cc(F)cc(F)c1)c1cc(C(=O)N(C)C)cc2c(=O)cc(N3CCOCC3)oc12` [AZD8186] + CC(=O)c1c(C)c2cnc(Nc3ccc(N4CCNCC4)cn3)nc2n(C2CCCC2)c1=O [Palbociclib] (first compound max 10 µM, 7x7, partner max 10 µM), the Bliss excess is 0.0624 in assay [1]; -0.0353 in the assay on NCI-H2452 (Mesothelioma); 0.0742 in assay [2]; 0.0867 in assay [3]; 0.0059 in assay [4]; 0.0013 in assay [5]. In addition, the Bliss excess is 0.0672 in assay [6], -0.0184 in assay [7] and 0.0696 in [8].
On to `CS(=O)(=O)CCNCc1ccc(-c2ccc3ncnc(Nc4ccc(OCc5cccc(F)c5)c(Cl)c4)c3c2)o1` [Lapatinib] + Cn1cnc2c(F)c(Nc3ccc(Br)cc3Cl)c(C(=O)NOCCO)cc21 [Selumetinib] (first compound max 10 µM, 7x7, partner max 10 µM), for which the Bliss excess in assay [1] is -0.0027; in the assay with NCI-H2452 (Mesothelioma), -0.0363; in [2] it was -0.0109; in assay [3], 0.0547; in assay [4], 0.0224; in [5], -0.031. The values for the Bliss excess in assay [6], in [7] and in assay [8] were 0.116, -0.0531 and 0.0764, respectively.
In the case of `CN(CCO)CC[C@H](CSc1ccccc1)Nc1ccc(S(=O)(=O)NC(=O)c2ccc(N3CCC([C@@H](O)c4ccccc4-c4ccc(Cl)cc4)CC3)cc2)cc1S(=O)(=O)C(F)(F)F` [AZD4320] + CS(=O)(=O)CCNCc1ccc(-c2ccc3ncnc(Nc4ccc(OCc5cccc(F)c5)c(Cl)c4)c3c2)o1 [Lapatinib] (first compound max 1 µM, 7x7, partner max 10 µM), the Bliss excess in assay [1] was 0.0082; in the assay with NCI-H2452 (Mesothelioma), -0.019; in [2], 0.052; in [3], 0.0372; in assay [4], -0.0212; in [5] it was 0.0949. The figures for the Bliss excess in [6], in assay [7] and in [8] were -0.0316, -0.0017 and -0.0167, respectively.
As to `C[C@@H](Nc1cc(F)cc(F)c1)c1cc(C(=O)N(C)C)cc2c(=O)cc(N3CCOCC3)oc12` [AZD8186] + C1CN(CCC1(C(=O)N[C@@H](CCO)C2=CC=C(C=C2)Cl)N)C3=NC=NC4=C3C=CN4 [AZD5363] (first compound max 10 µM, 7x7, partner max 10 µM), the Bliss excess in assay [1] is -0.0138; in the assay on NCI-H2452 (Mesothelioma), -0.0466; in [2] it was 0.0272; in assay [3], 0.0374; in assay [4], 0.0189; in [5], -0.0783. Moreover, the Bliss excess in assay [6] was -0.0377; in [7], -0.034; in assay [8], -0.0418.
Turning to `O=C(c1cc(Cc2n[nH]c(=O)c3ccccc23)ccc1F)N1CCN(C(=O)C2CC2)CC1` [Olaparib] + Cc1c2c(nn1C)CSCc1cc(n(C)n1)CSc1cc(c3ccccc3c1)OCCCc1c(C(=O)O)n(C)c3c-2c(Cl)ccc13 [AZD5991] (first compound max 10 µM, 7x7, partner max 1 µM), the Bliss excess in [1] is 0.0277; in the assay on NCI-H2452 (Mesothelioma), -0.0199; in [2] it was -0.0134; in assay [3] it was 0.0737; in [4], -0.0494; in [5] it was -0.0419. Also, the Bliss excess in assay [6] is -0.0083; in assay [7], -0.0445; in [8] it was 0.0135.
With `Cc1c2c(nn1C)CSCc1cc(n(C)n1)CSc1cc(c3ccccc3c1)OCCCc1c(C(=O)O)n(C)c3c-2c(Cl)ccc13` [AZD5991] + CS(=O)(=O)CCNCc1ccc(-c2ccc3ncnc(Nc4ccc(OCc5cccc(F)c5)c(Cl)c4)c3c2)o1 [Lapatinib] (first compound max 1 µM, 7x7, partner max 10 µM), the Bliss excess in [1] is 0.0132; in the assay on NCI-H2452 (Mesothelioma) it was -0.0576; in assay [2], -0.0235; in assay [3] it was 0.0211; in [4] it was -0.0414; in assay [5], 0.0115. Moreover, the Bliss excess in assay [6] is -0.023; in assay [7], -0.0136; in assay [8], 0.0112.
Turning to `CCc1c2c(nc3ccc(O)cc13)-c1cc3c(c(=O)n1C2)COC(=O)[C@]3(O)CC` [SN-38] + O=C(c1cc(Cc2n[nH]c(=O)c3ccccc23)ccc1F)N1CCN(C(=O)C2CC2)CC1 [Olaparib] (first compound max 0.3 µM, 7x7, partner max 10 µM), the Bliss excess in [12] stood at 0.0669; in [13], 0.122; in assay [1], 0.0309; in the assay on NCI-H2452 (Mesothelioma), 0.0422; in assay [2], 0.0513; in [14] it was 0.0907. In addition, the Bliss excess in assay [3] was 0.0369; in assay [15], -0.0168; in assay [16], 0.0248; in assay [4], -0.022; in [9], 0.025; in [5], 0.0767. Further, the Bliss excess in assay [6] turned out to be 0.0133; in assay [7], 0.14; in assay [11], 0.0187; in assay [8], 0.0478.
Regarding `C=CCn1c(=O)c2cnc(Nc3ccc(N4CCN(C)CC4)cc3)nc2n1-c1cccc(C(C)(C)O)n1` [AZD1775] + CCc1c2c(nc3ccc(O)cc13)-c1cc3c(c(=O)n1C2)COC(=O)[C@]3(O)CC [SN-38] (first compound max 1 µM, partner max 0.3 µM), the Bliss excess in [1] is 0.0273; in the assay on NCI-H2452 (Mesothelioma) it was -0.0145; in [2] it was -0.0297; in assay [3] it was -0.0252; in assay [4], -0.0262; in assay [5], 0.0012. Further, the Bliss excess in [6] is -0.0217; in assay [7], 0.0769; in assay [8], 0.0275.
For the compound `Cc1c2c(nn1C)CSCc1cc(n(C)n1)CSc1cc(c3ccccc3c1)OCCCc1c(C(=O)O)n(C)c3c-2c(Cl)ccc13` [AZD5991] + Nc1ccn([C@@H]2O[C@H](CO)[C@@H](O)C2(F)F)c(=O)n1 [Gemcitabine] (first compound max 1 µM, 7x7, partner max 0.3 µM), the Bliss excess in assay [1] is 0.0938; in the assay on NCI-H2452 (Mesothelioma), -0.0642; in assay [2] it was 0.0059; in [3] it was 0.033; in assay [4] it was 0.0042; in assay [5], 0.0264. Besides, the Bliss excess in [6] was -0.0061; in assay [7], -0.0361; in [8] it was 0.0571.
Consider `C[C@@H](Oc1cc(-c2cnn(C3CCNCC3)c2)cnc1N)c1c(Cl)ccc(F)c1Cl` [Crizotinib] + Cn1cnc2c(F)c(Nc3ccc(Br)cc3Cl)c(C(=O)NOCCO)cc21 [Selumetinib] (first compound max 10 µM, 7x7, partner max 10 µM), for which the Bliss excess in assay [1] was 0.0316; with NCI-H2452 (Mesothelioma) it was -0.0494; in assay [2], -0.0502; in [3], -0.045; in assay [4], -0.0146; in assay [5], -0.0606. In addition, the values for the Bliss excess in assay [6], in assay [7] and in assay [8] were -0.108, 0.0062 and -0.0633, respectively.
Consider `O=C(c1cc(Cc2n[nH]c(=O)c3ccccc23)ccc1F)N1CCN(C(=O)C2CC2)CC1` [Olaparib] + CC1(C)CCC(CN2CCN(c3ccc(C(=O)NS(=O)(=O)c4ccc(NCC5CCOCC5)c([N+](=O)[O-])c4)c(Oc4cnc5[nH]ccc5c4)c3)CC2)=C(c2ccc(Cl)cc2)C1 [Venetoclax] (first compound max 10 µM, 7x7, partner max 1 µM), for which the Bliss excess in [1] was 0.0557; with NCI-H2452 (Mesothelioma) it was -0.0646; in [2], -0.0063; in assay [3] it was 0.0012; in assay [4], -0.0328; in [5] it was -0.0163. Besides, the values for the Bliss excess in assay [6], in assay [7] and in [8] were -0.0403, -0.0323 and 0.0277, respectively.

(Values after the supplement of paper PMC11061612.)
